Assay: Study HDP-CDV-201: safety and tolerability (adverse events, laboratory abnormalities, discontinuations)
Type: in vivo, human (adult allogeneic HSCT recipients)
Details: for Subjects Receiving Aldesleukin / Subjects Receiving Blood and Related Products / Subjects Receiving Blood, Whole / Subjects Receiving Filgrastim / Subjects Receiving Granulocyte Colony Stimulating Factor / Subjects Receiving Pegfilgrastim / Subjects Receiving Platelets / Subjects Receiving Red Blood Cells / Subjects Receiving Red Blood Cells, Concentrated / Subjects Receiving Sargramostim: during the Treatment Period; for Cause of death: individual subjects who died
Description: Clinical Studies of HDP-CDV were performed and described in detail in the following Examples. For example, HDP-CDV-201 is a placebo-controlled, dose-escalating trial in HSCT CMV (R+) recipients, evaluating the ability of HDP-CDV to prevent or control CMV infection was carried out. Five cohorts were established in which participants or subjects received either placebo or the HDP-CDV orally, in doses ranging from 40 mg weekly (QW) to 200 mg twice weekly (BIW). Subjects who were post-HSCT were enrolled at the time of engraftment and randomized to HDP-CDV or placebo (3 to 1 ratio) and received blinded therapy until approximately 100 day post-transplantation. HDP-CDV doses were 40 mg QW, 100 mg QW, 200 mg QW, 200 mg BIW and 100 mg BIW. Escalation to the next dose was decided by the data monitoring committee after review of the safety data from the previous Cohort. Subjects who developed CMV disease or CMV infection requiring pre-emptive therapy with local standard of care were discontinued from blinded therapy and followed for 4 weeks. Subjects who completed treatment with blinded therapy were followed for 8 weeks post-therapy.
Data from Study HDP-CDV-201 also provided characterization of the safety and tolerability profile of HDP-CDV when administered for the prevention or control of CMV infection in high risk (R^+) post-HSCT adult subjects.
The Safety population (SAFETY) included all randomized subjects who took at least one dose of study treatment. This population was used to summarize safety outcomes based on the treatment actually received, in cases where a subject was treated contrary to the randomization schedule.
The safety and tolerability profile of HDP-CDV, including subject demographics and Baseline characteristics; the AE profile; and laboratory abnormalities of interest were analyzed in the cohorts followed in this investigation.
Subjects completing the treatment period received a full course of study medication; those completing the entire study attended visits through 8 weeks of follow up. Subjects who discontinued treatment may have done so for protocol specified reasons (e.g. development of clinically significant CMV infection requiring preemptive treatment with excluded anti-CMV medications) or for other reasons (e.g., withdrawal, adverse events, loss to follow-up). The disposition of subjects in Study HDP-CDV-201 during the double-blind, placebo-controlled treatment period (through Week 11) is listed by dosing Cohort in TABLE 23.
Adverse events were examined by severity to ensure that all safety signals were identified in this study population. Because of the frequency of events in HSCT recipients, particular attention was given to evaluation of Grade 3 […], 4 (severe), and 5 (fatal) adverse events.
Only those preferred terms for which at least one Grade 3 or higher event was experienced in any treatment group are listed. Cytomegalovirus-related AEs are excluded from this analysis.
HDP-CDV is a lipid conjugate of CDV. Because CDV is known to have adverse effects on renal function and bone marrow, decreased GFR and persistent neutropenia were identified as AEs of special interest. Key renal and hematological (TABLE 30) laboratory parameters were measured and listed below by Study HDP-CDV-201 treatment groups. TABLE 30 includes abnormal levels of serum creatinine, neutrophils, platelets, WBCs, and hemoglobin and includes data at Screening and during the treatment period.
A common metric for unit based dosing of medications is by weight (mg/kg). When the distribution of weights was examined for all subjects participating in the study, the median was 78 kg and the lower 25th percentile weight was approximately 65 kg, which translates to a cut-off of ˜3 mg/kg for a 200 mg total weekly dose. Based upon this approach, a cut-off of 3 mg/kg was used to assess the frequency of diarrhea and associated GI AEs reported for the subjects in Cohorts 3 or 4a (TABLE 40).

Q: With CCCCCCCCCCCCCCCCOCCCOP(=O)(O)COC(CO)Cn1ccc(N)nc1=O (centres unmarked) [HDP-CDV] as the compound, how does the “drug induced liver injury (DILI)” value (course of the study) read?
A: The value was “No case of drug induced liver injury (DILI) clearly attributable to HDP-CDV”.

Q: And the “Subjects Receiving Aldesleukin” value (40 mg QW)?
A: The value was 0.

Q: And the “Subjects Receiving Blood and Related Products” value (40 mg QW)?
A: Its value is 1 (4.0%).

Q: What about the “Subjects Receiving Blood, Whole” value (40 mg QW) of the same compound?
A: Its value is 0.

Q: What about the “Subjects Receiving Filgrastim” value (40 mg QW) of the same compound?
A: Its value is 4 (16.0%).

Q: And the “Subjects Receiving Granulocyte Colony Stimulating Factor” value (40 mg QW)?
A: The value was 0.

Q: What about the “Subjects Receiving Pegfilgrastim” value (40 mg QW) of the same compound?
A: The value was 0.

Q: And the “Subjects Receiving Platelets” value (40 mg QW)?
A: Its value is 5 (20.0%).

Q: What about the “Subjects Receiving Red Blood Cells” value (40 mg QW) of the same compound?
A: Its value is 0.

Q: What about the “Subjects Receiving Red Blood Cells, Concentrated” value (40 mg QW) of the same compound?
A: The value was 2 (8.0%).

Q: And the “Subjects Receiving Sargramostim” value (40 mg QW)?
A: The value was 0.

Q: And the “Subjects Receiving Aldesleukin” value (100 mg BIW)?
A: Its value is 0.

Q: What about the “Subjects Receiving Blood and Related Products” value (100 mg BIW) of the same compound?
A: Its value is 0.

Q: What about the “Subjects Receiving Blood, Whole” value (100 mg BIW) of the same compound?
A: The value was 0.

Q: What about the “Subjects Receiving Filgrastim” value (100 mg BIW) of the same compound?
A: The value was 11 (22.0%).

Q: And the “Subjects Receiving Granulocyte Colony Stimulating Factor” value (100 mg BIW)?
A: The value was 0.

Q: And the “Subjects Receiving Pegfilgrastim” value (100 mg BIW)?
A: The value was 2 (4.0%).

Q: And the “Subjects Receiving Platelets” value (100 mg BIW)?
A: Its value is 6 (12.0%).

Q: What about the “Subjects Receiving Red Blood Cells” value (100 mg BIW) of the same compound?
A: The value was 3 (6.0%).

Q: And the “Subjects Receiving Red Blood Cells, Concentrated” value (100 mg BIW)?
A: The value was 6 (12.0%).

Q: What about the “Subjects Receiving Sargramostim” value (100 mg BIW) of the same compound?
A: Its value is 0.

Q: And the “Subjects Receiving Aldesleukin” value (100 mg QW)?
A: The value was 0.

Q: What about the “Subjects Receiving Blood and Related Products” value (100 mg QW) of the same compound?
A: Its value is 0.

Q: What about the “Subjects Receiving Blood, Whole” value (100 mg QW) of the same compound?
A: The value was 1 (3.7%).

Q: And the “Subjects Receiving Filgrastim” value (100 mg QW)?
A: The value was 4 (14.8%).

Q: What about the “Subjects Receiving Granulocyte Colony Stimulating Factor” value (100 mg QW) of the same compound?
A: Its value is 0.

Q: And the “Subjects Receiving Pegfilgrastim” value (100 mg QW)?
A: The value was 0.

Q: And the “Subjects Receiving Platelets” value (100 mg QW)?
A: The value was 3 (11.1%).

Q: And the “Subjects Receiving Red Blood Cells” value (100 mg QW)?
A: Its value is 2 (7.4%).

Q: What about the “Subjects Receiving Red Blood Cells, Concentrated” value (100 mg QW) of the same compound?
A: Its value is 3 (11.1%).

Q: And the “Subjects Receiving Sargramostim” value (100 mg QW)?
A: The value was 0.

Q: What about the “Subjects Receiving Aldesleukin” value (200 mg BIW) of the same compound?
A: Its value is 0.

Q: What about the “Subjects Receiving Blood and Related Products” value (200 mg BIW) of the same compound?
A: The value was 0.

Q: And the “Subjects Receiving Blood, Whole” value (200 mg BIW)?
A: Its value is 0.

Q: And the “Subjects Receiving Filgrastim” value (200 mg BIW)?
A: The value was 5 (16.7%).

Q: And the “Subjects Receiving Granulocyte Colony Stimulating Factor” value (200 mg BIW)?
A: The value was 1 (3.3%).

Q: And the “Subjects Receiving Pegfilgrastim” value (200 mg BIW)?
A: The value was 1 (3.3%).

Q: What about the “Subjects Receiving Platelets” value (200 mg BIW) of the same compound?
A: The value was 6 (20.0%).

Q: What about the “Subjects Receiving Red Blood Cells” value (200 mg BIW) of the same compound?
A: Its value is 4 (13.3%).

Q: What about the “Subjects Receiving Red Blood Cells, Concentrated” value (200 mg BIW) of the same compound?
A: Its value is 5 (16.7%).

Q: And the “Subjects Receiving Sargramostim” value (200 mg BIW)?
A: The value was 0.

Q: What about the “Subjects Receiving Aldesleukin” value (200 mg QW) of the same compound?
A: Its value is 0.

Q: And the “Subjects Receiving Blood and Related Products” value (200 mg QW)?
A: The value was 0.

Q: And the “Subjects Receiving Blood, Whole” value (200 mg QW)?
A: The value was 0.

Q: And the “Subjects Receiving Filgrastim” value (200 mg QW)?
A: Its value is 11 (28.2%).

Q: And the “Subjects Receiving Granulocyte Colony Stimulating Factor” value (200 mg QW)?
A: The value was 1 (2.6%).

Q: And the “Subjects Receiving Pegfilgrastim” value (200 mg QW)?
A: The value was 1 (2.6%).

Q: And the “Subjects Receiving Platelets” value (200 mg QW)?
A: Its value is 6 (15.4%).

Q: And the “Subjects Receiving Red Blood Cells” value (200 mg QW)?
A: Its value is 3 (7.7%).

Q: What about the “Subjects Receiving Red Blood Cells, Concentrated” value (200 mg QW) of the same compound?
A: The value was 6 (15.4%).

Q: What about the “Subjects Receiving Sargramostim” value (200 mg QW) of the same compound?
A: The value was 1 (2.6%).

Q: And the “relation of deaths to study drug” value (entire study duration)?
A: The value was “None of the deaths were considered by the Investigators as related to HDP-CDV”.

Q: And the Cause of death (dose 100 mg BIW)?
A: The Cause of death was “Gut GVHD”.

Q: And the Cause of death (dose 200 mg BIW)?
A: Its Cause of death is “GI bleed”.

Q: What about the “average increase in ALT from Baseline at time of maximum ALT increase” value (range across cohorts) of the same compound?
A: Its value is 1.53 to 3.55 fold.

Q: What about the nephrotoxicity or myelotoxicity (regardless of dose and dosing frequency) of the same compound?
A: The nephrotoxicity or myelotoxicity was “no indication of nephrotoxicity or myelotoxicity”.
